Measured values reported in the supplement of paper PMC11451515.

Key:
Details in all cases: 48 h
[1] = system: SEM cells; experiment: AUC of viability dose-response curve (% viability x log10 dose units); higher = less sensitive
Summary of the method: (§1)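 Viability of medium-adapted leukemia cells was measured by CellTiter-Glo One luminescence after 48 h at 37°C with library compounds in DMSO. Doses were 11 threefold steps from 47 μM to 0.79 nM, in 1536-well plates at 500 or 1000 cells/well. Signals were normalised per plate to DMSO and cell-free wells and fitted with a four-parameter log-logistic model on log10 dose. Area under the curve was integrated by trapezoidal rule, with curves exceeding full viability scaled and failed quality-control curves removed.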

[2] = system: P12-Ichikawa; experiment: as above
Summary of the method: as §1

[3] = system: NOMO1; experiment: as above
Summary of the method: as §1

[4] = system: SEM cells; experiment: cell viability relative to DMSO control; higher = less cytotoxic
Summary of the method: (§2)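 Viability is expressed as a percentage of DMSO wells within each plate, and cell-free wells serve as background. Seeding densities in the 1536-well plates (5 μl) were 500 cells/well for NOMO1 or SEM leukemia cells and 1000 cells/well for P12-Ichikawa. Each line was adapted for at least four passages in each medium. Library compounds in DMSO were pin-dosed at 47 μM to 0.79 nM (11 points, threefold), and CellTiter-Glo One luminescence was read after 48 h at 37°C.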

[5] = system: P12-Ichikawa; experiment: as above
Summary of the method: as §2

[6] = system: NOMO1; experiment: as above
Summary of the method: as §2

C=C[C@H]1CN2CC[C@H]1C[C@H]2[C@H](O)c1ccnc2ccc(OC)cc12
AUC of viability dose-response curve
Details | [1] | [2] | [3]
HPLM + 10% dialyzed FBS | 472 | 458 | 464
RPMI 5 mM glucose + 10% FBS | 442 | 466 | 443
RPMI 5 mM glucose + 10% dialyzed FBS | 431 | 446 | 469

cell viability [%]
Details | [4] | [5] | [6]
HPLM + 10% dialyzed FBS, 0.000781 µM | 91.2 | 100 | 116
HPLM + 10% dialyzed FBS, 0.00234 µM | 99.2 | 98.6 | 89.2
HPLM + 10% dialyzed FBS, 0.00702 µM | 93.3 | 93.6 | 96.3
HPLM + 10% dialyzed FBS, 0.0211 µM | 97 | 104 | 109
HPLM + 10% dialyzed FBS, 0.0632 µM | 106 | 96.3 | 105
HPLM + 10% dialyzed FBS, 0.19 µM | 116 | 100 | 98.4
HPLM + 10% dialyzed FBS, 0.569 µM | 104 | 104 | 115
HPLM + 10% dialyzed FBS, 1.71 µM | 86 | 105 | 96.4
HPLM + 10% dialyzed FBS, 5.12 µM | 125 | 108 | 112
HPLM + 10% dialyzed FBS, 15.4 µM | 96.8 | 110 | 101
HPLM + 10% dialyzed FBS, 46.1 µM | 74.3 | 100 | 86.8
RPMI 5 mM glucose + 10% FBS, 0.000781 µM | 90.8 | 95.9 | 86.5
RPMI 5 mM glucose + 10% FBS, 0.00234 µM | 88.7 | 104 | 87.5
RPMI 5 mM glucose + 10% FBS, 0.00702 µM | 84 | 99.4 | 84.3
RPMI 5 mM glucose + 10% FBS, 0.0211 µM | 89.7 | 95.7 | 87.8
RPMI 5 mM glucose + 10% FBS, 0.0632 µM | 105 | 93.6 | 103
RPMI 5 mM glucose + 10% FBS, 0.19 µM | 99.2 | 101 | 97.9
RPMI 5 mM glucose + 10% FBS, 0.569 µM | 104 | 106 | 98.7
RPMI 5 mM glucose + 10% FBS, 1.71 µM | 90.7 | 109 | 103
RPMI 5 mM glucose + 10% FBS, 5.12 µM | 102 | 129 | 99.5
RPMI 5 mM glucose + 10% FBS, 15.4 µM | 94.5 | 111 | 97.6
RPMI 5 mM glucose + 10% FBS, 46.1 µM | 50.4 | 75.4 | 76.4
RPMI 5 mM glucose + 10% dialyzed FBS, 0.000781 µM | 85.2 | 89.9 | 92.3
RPMI 5 mM glucose + 10% dialyzed FBS, 0.00234 µM | 98.2 | 89 | 103
RPMI 5 mM glucose + 10% dialyzed FBS, 0.00702 µM | 93.4 | 91.7 | 98.9
RPMI 5 mM glucose + 10% dialyzed FBS, 0.0211 µM | 93.8 | 93.1 | 96.1
RPMI 5 mM glucose + 10% dialyzed FBS, 0.0632 µM | 92 | 96.3 | 104
RPMI 5 mM glucose + 10% dialyzed FBS, 0.19 µM | 96.9 | 96.7 | 108
RPMI 5 mM glucose + 10% dialyzed FBS, 0.569 µM | 80 | 94.1 | 113
RPMI 5 mM glucose + 10% dialyzed FBS, 1.71 µM | 80.7 | 95.3 | 105
RPMI 5 mM glucose + 10% dialyzed FBS, 5.12 µM | 90.9 | 102 | 106
RPMI 5 mM glucose + 10% dialyzed FBS, 15.4 µM | 102 | 101 | 105
RPMI 5 mM glucose + 10% dialyzed FBS, 46.1 µM | 70.2 | 81 | 68.8

NC/1=N/[C@]2(COC[C@H]2CS1)C3=CC(=CC=C3F)NC(=O)C4=NC=C(F)C=C4
AUC of viability dose-response curve
Details | [1] | [2] | [3]
HPLM + 10% dialyzed FBS | 461 | 350 | 324
RPMI 5 mM glucose + 10% FBS | 417 | 348 | 302
RPMI 5 mM glucose + 10% dialyzed FBS | 471 | 374 | 313

cell viability [%], [4]
Details | HPLM + 10% dialyzed FBS | RPMI 5 mM glucose + 10% FBS
0.000781 µM | 90.8 | 119
0.00234 µM | 111 | 120
0.00702 µM | 131 | 129
0.0211 µM | 127 | 135
0.0632 µM | 132 | 138
0.19 µM | 140 | 149
0.569 µM | 130 | 127
1.71 µM | 135 | 141
5.12 µM | 136 | 155
15.4 µM | 147 | 29
46.1 µM | 110 | 7.7

C[C@@H]1CC[C@H]2[C@@H](C)C(=O)O[C@@H]3O[C@@]4(C)CC[C@@H]1[C@]32OO4
AUC of viability dose-response curve
Details | [1] | [2] | [3]
HPLM + 10% dialyzed FBS | 436 | 440 | 435
RPMI 5 mM glucose + 10% FBS | 424 | 412 | 419
RPMI 5 mM glucose + 10% dialyzed FBS | 418 | 416 | 451

cell viability [%], [4]
Details | RPMI 5 mM glucose + 10% FBS | RPMI 5 mM glucose + 10% dialyzed FBS
0.000781 µM | 115 | 132
0.00234 µM | 144 | 113
0.00702 µM | 118 | 120
0.0211 µM | 134 | 118
0.0632 µM | 109 | 110
0.19 µM | 108 | 100
0.569 µM | 115 | 97.6
1.71 µM | 87.6 | 77.3
5.12 µM | 91.7 | 72.2
15.4 µM | 116 | 112
46.1 µM | 114 | 126

Fc1ccc([C@@H]2CCNC[C@H]2COc2ccc3c(c2)OCO3)cc1
AUC of viability dose-response curve
Details | [1] | [2] | [3]
HPLM + 10% dialyzed FBS | 417 | 396 | 447
RPMI 5 mM glucose + 10% FBS | 407 | 337 | 463
RPMI 5 mM glucose + 10% dialyzed FBS | 416 | 393 | 455

[4], HPLM + 10% dialyzed FBS
Details | cell viability [%]
0.000781 µM | 119
0.00234 µM | 124
0.00702 µM | 130
0.0211 µM | 141
0.0632 µM | 122
0.19 µM | 123
0.569 µM | 125
1.71 µM | 109
5.12 µM | 103
15.4 µM | 58.9
46.1 µM | 24.7

Nc1nc(Cl)nc2c1ncn2[C@H]1C[C@H](O)[C@@H](CO)O1
AUC of viability dose-response curve
Details | [1] | [2] | [3]
HPLM + 10% dialyzed FBS | 238 | 263 | 256
RPMI 5 mM glucose + 10% FBS | 226 | 254 | 270
RPMI 5 mM glucose + 10% dialyzed FBS | 212 | 272 | 257

[4], HPLM + 10% dialyzed FBS
Details | cell viability [%]
0.000781 µM | 114
0.00234 µM | 119
0.00702 µM | 115
0.0211 µM | 133
0.0632 µM | 115
0.19 µM | 15.7
0.569 µM | 13.9
1.71 µM | 12.7
5.12 µM | 11.6
15.4 µM | 9.89
46.1 µM | 5.05

CC(=O)N[C@H]1[C@H](O[C@@H]2c3ccc(c(Cl)c3)Oc3cc4cc(c3O[C@@H]3O[C@H](CO)[C@@H](O)[C@H](O)[C@H]3NC(=O)CCCCCCCC(C)C)Oc3ccc(cc3Cl)C[C@H]3NC(=O)[C@H](N)c5ccc(O)c(c5)Oc5cc(O)cc(c5)[C@H](NC3=O)C(=O)N[C@H]4C(=O)N[C@H]3C(=O)N[C@@H]2C(=O)N[C@@H](C(=O)O)c2cc(O)cc(O[C@H]4O[C@H](CO)[C@@H](O)[C@H](O)[C@@H]4O)c2-c2cc3ccc2O)O[C@H](CO)[C@@H](O)[C@@H]1O
AUC of viability dose-response curve
Details | [1] | [2] | [3]
HPLM + 10% dialyzed FBS | 456 | 463 | 469
RPMI 5 mM glucose + 10% FBS | 464 | 466 | 470
RPMI 5 mM glucose + 10% dialyzed FBS | 471 | 468 | 448

Details | cell viability [%]
[4], HPLM + 10% dialyzed FBS, 0.000781 µM | 96.3
[4], HPLM + 10% dialyzed FBS, 0.00234 µM | 106
[4], HPLM + 10% dialyzed FBS, 0.00702 µM | 106
[4], HPLM + 10% dialyzed FBS, 0.0211 µM | 123
[4], HPLM + 10% dialyzed FBS, 0.0632 µM | 127
[4], HPLM + 10% dialyzed FBS, 0.19 µM | 121
[4], HPLM + 10% dialyzed FBS, 0.569 µM | 127
[4], HPLM + 10% dialyzed FBS, 1.71 µM | 140
[4], HPLM + 10% dialyzed FBS, 5.12 µM | 117
[4], HPLM + 10% dialyzed FBS, 15.4 µM | 98.6
[4], HPLM + 10% dialyzed FBS, 46.1 µM | 126
[6], RPMI 5 mM glucose + 10% dialyzed FBS, 0.000781 µM | 123
[6], RPMI 5 mM glucose + 10% dialyzed FBS, 0.00234 µM | 131
[6], RPMI 5 mM glucose + 10% dialyzed FBS, 0.00702 µM | 123
[6], RPMI 5 mM glucose + 10% dialyzed FBS, 0.0211 µM | 144
[6], RPMI 5 mM glucose + 10% dialyzed FBS, 0.0632 µM | 146
[6], RPMI 5 mM glucose + 10% dialyzed FBS, 0.19 µM | 151
[6], RPMI 5 mM glucose + 10% dialyzed FBS, 0.569 µM | 149
[6], RPMI 5 mM glucose + 10% dialyzed FBS, 1.71 µM | 162
[6], RPMI 5 mM glucose + 10% dialyzed FBS, 5.12 µM | 157
[6], RPMI 5 mM glucose + 10% dialyzed FBS, 15.4 µM | 157
[6], RPMI 5 mM glucose + 10% dialyzed FBS, 46.1 µM | 151

CO[C@H]1/C=C\C=C(\C)C(=O)NC2=CC(=O)C(NCCN(C)C)=C(C[C@@H](C)C[C@H](OC)[C@H](O)[C@@H](C)/C=C(/C)[C@@H]1OC(N)=O)C2=O
AUC of viability dose-response curve
Details | [1] | [2] | [3]
HPLM + 10% dialyzed FBS | 279 | 362 | 305
RPMI 5 mM glucose + 10% FBS | 274 | 328 | 308
RPMI 5 mM glucose + 10% dialyzed FBS | 268 | 333 | 309

[4], HPLM + 10% dialyzed FBS
Details | cell viability [%]
0.000781 µM | 108
0.00234 µM | 124
0.00702 µM | 118
0.0211 µM | 120
0.0632 µM | 122
0.19 µM | 60.8
0.569 µM | 31.6
1.71 µM | 25.3
5.12 µM | 25.5
15.4 µM | 23
46.1 µM | 6.44

CN1CCN(CC1)C2=C3OCN(C)N4\C=C(C(O)=O)/C(=O)C(=C34)C=C2F
AUC of viability dose-response curve
Details | [1] | [2] | [3]
HPLM + 10% dialyzed FBS | 471 | 459 | 454
RPMI 5 mM glucose + 10% FBS | 466 | 459 | 450
RPMI 5 mM glucose + 10% dialyzed FBS | 434 | 465 | 465

[4], HPLM + 10% dialyzed FBS
Details | cell viability [%]
0.000781 µM | 66.2
0.00234 µM | 116
0.00702 µM | 120
0.0211 µM | 124
0.0632 µM | 115
0.19 µM | 115
0.569 µM | 117
1.71 µM | 116
5.12 µM | 102
15.4 µM | 105
46.1 µM | 82
